The nature of series [1]: Solubility of the compound by laser nephelometry. Type of series: physicochemical.
Series [2] concerns the target T1, Tubulin (Homo sapiens) (UniProt P68371+Q9H4B7+P0DPH7+P68366+Q13509+Q71U36+P04350+Q3ZCM7+P07437+P68363+Q9BQE3+Q6PEY2+Q13885+Q9BVA1+Q9BUF5). Nature of the series: Inhibition of microtubule (unknown origin) polymerization at 25 uM by fluorescence- based assay relative to control. The series is classed as protein-complex assay.
Series [3] concerns the target T1, Tubulin (Homo sapiens). Nature of the series: Induction of microtubule organization changes in human Hela cells assessed as decrease in spindle length at GI50 concentration incubated for 4 hrs by inverted microscopy. The series is classed as cell-based.
The nature of series [4]: Therapeutic index, ratio of GI50 for human PNT1A cells to GI50 for human HeLa cells. The series is classed as toxicity. Particulars: PNT1A cells and HeLa cells, read-out: TI.
The subject of series [5] is HeLa. Kind of series: Antimitotic effect in human HeLa cells expressing EGFP-tubulin assessed as chromosome congression defect by measuring correcting the syntelic attachment at 7.5 nM incubated for 4 hrs by live-cell imaging/inverted microscopy. The series is classed as functional, cell-based.
Series [6] deals with HeLa. Kind of series: Antimitotic effect in human HeLa cells expressing EGFP-tubulin assessed as chromosome congression defect by measuring progressing through mitosis to prolonged pro-metaphase arrest at 7.5 nM incubated for 4 hrs by immunolabelling based live-cell imaging/inverted microscopy. Type of series: functional.
Series [7] has as its system HeLa. Kind of series: Antimitotic effect in human HeLa cells expressing EGFP-tubulin assessed as chromosome congression defect by measuring mitotic exit/cell death at 7.5 nM incubated for 4 hrs by immunolabelling based live-cell imaging/inverted microscopy. Type of series: functional.
The test system of series [8] is HeLa. Kind of series: Induction of apoptosis in human HeLa cells assessed as total number of cells died at 20 uM measured upto 30 hrs by Annexin V labelling method relative to control. Type of series: functional.
Series [9] concerns HeLa. Nature of the series: Antiproliferative activity against human HeLa cells assessed as reduction in cell viability incubated for 48 hrs by MTT assay. Type of series: functional. On the technique in general: Formazan colour is commonly taken as a measure of viable cells.

Values after ≈ are worked out from the molar mass of the structure shown. Active and inactive are the calls of the source. The rule behind the calls is not given here.

For `C#CCCCc1nc(=O)c2c(-c3ccccc3)c(C(=O)c3ccc(OCCN4CCOCC4)cc3)[nH]c2[nH]1`, in [1], the solubility entry is “Soluble”. At Tubulin (Homo sapiens) [2], the inhibition (as a rule, the change of the read-out against control, counted positive when it falls) was 100%. Moreover, at Tubulin (Homo sapiens) [3], the result was Active.

As for `C#CCCCc1nc(=O)c2c(-c3ccccc3)c(C(=O)c3ccc(OCCN4CCCC4)cc3)[nH]c2[nH]1`, the solubility entry in [1] is on record as “Soluble”.

On to `C#CCCCc1nc(=O)c2c(-c3ccccc3)c(C(=O)c3ccccc3)[nH]c2[nH]1`, for which the inhibition against Tubulin (Homo sapiens) [2] came out at 100%.

Consider `C#CCCCc1nc(=O)c2c(-c3ccccc3)c(C(=O)c3ccc(N4CCOCC4)cc3)[nH]c2[nH]1`, for which the selectivity ratio in series [4] was 2.

Consider `C#CCCCc1nc(=O)c2c(-c3ccccc3)c(C(=O)c3ccc(OCCOCC)cc3)[nH]c2[nH]1`, for which the selectivity ratio in series [4] came out at 2. The result in the series on HeLa [5], on Tubulin (Homo sapiens) [3], in the series with HeLa [6] and in the series on HeLa [7] was Active. The solubility (kinetic) (as a rule, the concentration staying in solution when a stock, usually in DMSO, is diluted into the medium) in [1] was found to be 14 µM (≈ 6.57 µg/mL). Moreover, the inhibition against Tubulin (Homo sapiens) [2] was found to be 100%.

With `C#CCCCc1nc(=O)c2c(-c3cc(F)cc(F)c3)c(C(=O)c3ccc(OCCOCC)cc3)[nH]c2[nH]1`, in [1], the kinetic solubility is 14 µM (≈ 7.08 µg/mL). For the same compound, at Tubulin (Homo sapiens) [3], the outcome was Active. In addition, the Activity in the series on HeLa [8] worked out at 85%.

Turning to `C#CCCCc1nc(=O)c2c(-c3cccc(F)c3)c(C(=O)c3ccc(OCCOCC)cc3)[nH]c2[nH]1`, in series [4], the selectivity ratio was 2. Moreover, in series [1], the solubility (kinetic) is 14 µM (≈ 6.83 µg/mL). On Tubulin (Homo sapiens) [2], the inhibition stood at 100%. The result on Tubulin (Homo sapiens) [3] was Active. The Activity with HeLa [8] turned out to be 87%. Besides, in the series with HeLa [9], the GI50 (usually the concentration that inhibits growth by half) came out at 16 nM.

Take `C#CCCCc1nc(=O)c2c(-c3cccc(Br)n3)c(C(=O)c3ccc(OCCOCC)cc3)[nH]c2[nH]1`: the GI50 in the series with HeLa [9] is 22.4 nM.
